In ChEMBL document CHEMBL1131641, “Indolequinone antitumor agents: relationship between quinone structure and rate of metabolism by recombinant human NQO1” (Bioorg Med Chem Lett, 1998):

How the values were obtained:
[1] = Selectivity ratio against NSCLC H460 and NSCLC H596 was evaluated; type: functional; design: reference not given here
[2] = species: Homo sapiens; experiment: Metabolism (NADH oxidation) by recombinant human NAD(P)H: quinone oxidoreductase (NQO1) is evaluated.; type: ADME
[3] = tested on: NCI-H596; experiment: Cytotoxic activity against non-small cell lung cancer cell line (NSCLC) H596 was determined by using MTT colorimetric assay.; type: functional, cell-based; conditions: Homo sapiens
[4] = tested on: NCI-H460; experiment: Cytotoxic activity against non-small cell lung cancer cell line (NSCLC) H460 was determined by using MTT colorimetric assay.; type: functional, cell-based; conditions: Homo sapiens

| Structure (SMILES) | Metabolism [2] | Selectivity ratio [1] | IC50 [3] | IC50 [4] |
| --- | --- | --- | --- | --- |
| Cc1c(COC(N)=O)c2c(n1C)C(=O)C=C(N1CC1)C2=O |  | 1.6 |  |  |
| Cc1c(CO)c2c(n1C)C(=O)C=C(CN1CC1)C2=O | 2.01 µM/min/mg | > 220 | > 25 µM | 0.11 µM |
| Cc1c(CO)c2c(n1C)C(=O)C=C(N1CCC1)C2=O | 0.22 µM/min/mg |  |  |  |
| Cc1cc2c(n1C)C(=O)C=C(N1CC1)C2=O | 11.6 µM/min/mg | > 26 |  |  |
| COCC/N=C1\C=C(O)c2c(c(CO)c(C)n2C)C1=O | 0.1 µM/min/mg |  |  |  |
| COC1=CC(=O)c2c(c(COC(N)=O)c(C)n2C)C1=O |  | 0.3 |  |  |
| Cc1c(CO)c2c(n1C)C(=O)C=C(N1CC1)C2=O | 3.35 µM/min/mg | 510 |  |  |

More lines, main results first:

| Metabolism [2] | Structure (SMILES) | Selectivity ratio [1] | IC50 [3] | IC50 [4] |
| --- | --- | --- | --- | --- |
| 0.69 µM/min/mg | Cc1c(CO)c2c(n1C)C(=O)C=C(N1CCOCC1)C2=O |  |  |  |
| 1.25 µM/min/mg | COC1=CC(=O)c2c(c(CO)c(C)n2C)C1=O | 1 |  |  |
| 8.78 µM/min/mg | COC1=CC(=O)c2c(c(C=O)c(C)n2C)C1=O |  |  |  |
| 14.3 µM/min/mg | CCOC(=O)c1c2c(n(C)c1C)C(=O)C=C(OC)C2=O |  |  |  |
| 0.49 µM/min/mg | C/N=C1\C=C(O)c2c(c(CO)c(C)n2C)C1=O |  |  |  |
| 5.31 µM/min/mg | COC1=CC(=O)c2c(cc(C)n2C)C1=O | 1 |  |  |
| 0.46 µM/min/mg | Cc1c(CO)c2c(n1C)C(=O)C=C(N(C)C)C2=O |  |  |  |
